Common to all, as to format: physicochemical
Data set [1] can be described thus: Examination of variability of fusion temperature of sorbate Form A (DSC). Here is the method: The factors that were assessed to explain the observed variability in fusion temperature found amongst Form A samples were sample loading, preferred orientation and particle size/homogeneity (Table 271). A weak relationship between sample loading and melt onset was observed, the remainder of the factors examined, appeared to be unrelated.
DSC data were collected from 25 to 220C at a scan rate of at 10° C. min^−1 (Table 292).

A short description of data set [2]: Heat-up/cool down (HUCD) crystallization of the monofumarate salt (Experiment Reference 11). The conditions noted are these: for XRPD (oven dried): form of product from HUCD crystallization of tabernanthalog fumarate Sample Reference 1 (Pattern #1), solvents per sample as in E1; for Observations (t = 0 @ T = 20° C.): input tabernanthalog fumarate Sample Reference 1 (Pattern #1), Solvent A/B: 11-A acetone/water, 11-B acetonitrile/water, 11-C butanol/water, 11-D tBME/methanol, 11-E DCM/methanol, 11-F ethanol/water, 11-G methyl acetate/water/methanol, 11-H 2-propanol/water, 11-1 methanol, 11-J MEK/water, 11-K 2-MeTHF/methanol, 11-L THF/water, 11-M toluene/methanol, 11-N water, 11-O dioxane/water, 11-P CPME/methan. The method, then: Separate portions of the tabernanthalog monofumarate salt (Pattern #1, Sample Reference 1, ca 75 mg, 1.0 wt.) were charged to separate vessels. The appropriate solvents (750 μl, 10.0 vol, refer to Table 106) were charged to the relevant vessels and subsequent charges of the appropriate co-solvent were made to accomplish dissolution at reflux. The solutions were cooled to 18 to 23° C. and allowed to stand undisturbed, until crystallization was judged complete. After this time the products were isolated by centrifugation, washed with recycled maturation solvent, dried under reduced pressure at 40° C. and analyzed by XRPD for evidence of alternative crystalline forms.

Data set [3] is described as follows: Targeted solubility of Tabernanthalog (native) in common solvents (Example 8, Experiment 1). The method, then:
The solutions were observed after cooling to determine if crystallization occurred on standing at room temperature.
To portions of tabernanthalog (native) (50 mg, 1 wt), were added 5 vol aliquots of the relevant solvent (Table 198). Observations were made at 20° C., 40° C. and reflux and the mixtures were cooled to 20° C. Contingent upon these findings, an additional 5 vol aliquot of the relevant solvent was added and the process was repeated until 20 vol of solvent was added in total.

The mark [4] stands for this setting: DSC 25-220° C. at 10° C. min^−1, batches of sorbate salt Form A.
The mark [5] stands for this setting: DSC 25 to 220C at 10° C. min−1, tabernanthalog sorbate Form A samples.
The mark [6] stands for this setting: DSC melt endset, 25 to 220C at 10° C. min−1, tabernanthalog sorbate Form A samples.
The mark [7] stands for this setting: DSC melt peak, 25 to 220C at 10° C. min−1, tabernanthalog sorbate Form A samples.

As for `C/C=C/C=C/C(=O)O.COc1ccc2c3c([nH]c2c1)CCN(C)CC3` [Pattern A1270-20-V2], in data set [1] (setting [4]), the Endset turned out to be 152.0 °C, the melt enthalpy is reported as −84.1 Jg^−1, the melt onset was found to be 143.9 °C and the peak worked out at 148.8 °C. Besides, in data set [1] (setting [5]), the melt enthalpy is reported as −84.09 Jg-1 and the melt onset is 143.89 °C. In addition, in data set [1] (setting [6]), the Endset is 151.95 °C. This compound came in with a peak in data set [1] (setting [7]) of 148.83 °C.

`COc1ccc2c3c([nH]c2c1)CCN(C)CC3.O=C(O)/C=C/C(=O)O` [Sample 11-F]: in data set [2], the “XRPD (oven dried)” value was “Pattern #6a” and the “Observations (t = 0 @ T = 20° C.)” value is listed as “suspension”.

As to `C/C=C/C=C/C(=O)O.COc1ccc2c3c([nH]c2c1)CCN(C)CC3` [Experiment 6-Sample D1], in data set [1] (setting [4]), the Endset was found to be 150.2 °C, the melt enthalpy is listed as −105.7 Jg^−1, the melt onset turned out to be 144.0 °C and the peak came out at 148.0 °C. Moreover, in data set [1] (setting [5]), the melt enthalpy is on record as −166.35 Jg-1 and the melt onset was 144.03 °C. This compound gave an Endset in data set [1] (setting [6]) of 150.17 °C. Also, the peak in data set [1] (setting [7]) was determined as 148.00 °C.

With `COc1ccc2c3c([nH]c2c1)CCN(C)CC3.O=C(O)/C=C/C(=O)O` [Sample 11-L], in data set [2], the “XRPD (oven dried)” value is listed as “Pattern #6a” and the “Observations (t = 0 @ T = 20° C.)” value was “solution”.

Consider `COc1ccc2c3c([nH]c2c1)CCN(C)CC3.O=C(O)/C=C/C(=O)O` [Sample 11-K], for which, in data set [2], the “XRPD (oven dried)” value is given as “Pattern #5” and the “Observations (t = 0 @ T = 20° C.)” value is given as “suspension”.

For `COc1ccc2c3c([nH]c2c1)CCN(C)CC3.O=C(O)/C=C/C(=O)O` [Sample 11-B], in data set [2], the “XRPD (oven dried)” value was “Pattern #6a” and the “Observations (t = 0 @ T = 20° C.)” value is “cloudy”.

Turning to `C/C=C/C=C/C(=O)O.COc1ccc2c3c([nH]c2c1)CCN(C)CC3` [Experiment 7-Sample A neat], in data set [1] (setting [4]), the Endset is 148.5 °C, the melt enthalpy is given as −122.5 Jg^−1, the melt onset turned out to be 144.4 °C and the peak worked out at 146.8 °C. Moreover, in data set [1] (setting [5]), the melt enthalpy is −122.47 Jg-1 and the melt onset came out at 144.39 °C. Moreover, in data set [1] (setting [6]), the Endset came to 148.53 °C. This compound registered a peak in data set [1] (setting [7]) of 146.83 °C.

As to `COc1ccc2c3c([nH]c2c1)CCN(C)CC3.O=C(O)/C=C/C(=O)O` [Sample 11-P], in data set [2], the “XRPD (oven dried)” value is “Pattern #5” and the “Observations (t = 0 @ T = 20° C.)” value was “suspension”.

In the case of `COc1ccc2c3c([nH]c2c1)CCN(C)CC3.O=C(O)/C=C/C(=O)O` [Sample 11-G], in data set [2], the “XRPD (oven dried)” value is “Pattern #1” and the “Observations (t = 0 @ T = 20° C.)” value was “suspension”.

Consider `COc1ccc2c3c([nH]c2c1)CCN(C)CC3.O=C(O)/C=C/C(=O)O` [Sample 11-1], for which, in data set [2], the “XRPD (oven dried)” value is recorded as “Pattern #6b” and the “Observations (t = 0 @ T = 20° C.)” value is on record as “suspension”.

`COc1ccc2c3c([nH]c2c1)CCN(C)CC3.O=C(O)/C=C/C(=O)O` [Sample 11-J]: in data set [2], the “XRPD (oven dried)” value was “Pattern #6a” and the “Observations (t = 0 @ T = 20° C.)” value is “suspension”.

On to `COc1ccc2c3c([nH]c2c1)CCN(C)CC3.O=C(O)/C=C/C(=O)O` [Sample 11-O], for which, in data set [2], the “XRPD (oven dried)” value was “Pattern #6a” and the “Observations (t = 0 @ T = 20° C.)” value is listed as “suspension”.

Take `COc1ccc2c3c([nH]c2c1)CCN(C)CC3.O=C(O)/C=C/C(=O)O` [Sample 11-A]: in data set [2], the “XRPD (oven dried)” value is “Pattern #6a” and the “Observations (t = 0 @ T = 20° C.)” value is recorded as “suspension”.

Regarding `COc1ccc2c3c([nH]c2c1)CCN(C)CC3.O=C(O)/C=C/C(=O)O` [Sample 11-H], in data set [2], the “XRPD (oven dried)” value was “Pattern #6a” and the “Observations (t = 0 @ T = 20° C.)” value was “cloudy”.

Consider `COc1ccc2c3c([nH]c2c1)CCN(C)CC3.O=C(O)/C=C/C(=O)O` [Sample 11-N], for which, in data set [2], the “XRPD (oven dried)” value was “Pattern #6a” and the “Observations (t = 0 @ T = 20° C.)” value is on record as “suspension”.

For the compound `C/C=C/C=C/C(=O)O.COc1ccc2c3c([nH]c2c1)CCN(C)CC3` [Experiment 6-Sample C1], in data set [1] (setting [4]), the Endset was 151.0 °C, the melt enthalpy is on record as −100.5 Jg^−1, the melt onset worked out at 144.7 °C and the peak is 148.8 °C. In addition, in data set [1] (setting [5]), the melt enthalpy is listed as −100.48 Jg-1 and the melt onset was 144.66 °C. Besides, the Endset in data set [1] (setting [6]) worked out at 151.02 °C. For the same compound, in data set [1] (setting [7]), the peak turned out to be 148.83 °C.

As to `C/C=C/C=C/C(=O)O.COc1ccc2c3c([nH]c2c1)CCN(C)CC3` [Experiment 6-Sample E1], the Endset in data set [1] (setting [4]) came out at 151.6 °C; in data set [1] (setting [6]), 151.59 °C. For the same compound, the melt enthalpy was −105.7 Jg^−1 in data set [1] (setting [4]) and −105.68 Jg-1 in data set [1] (setting [5]). For the same compound, the melt onset in data set [1] (setting [4]) turned out to be 145.0 °C; in data set [1] (setting [5]), 145.00 °C. Also, the peak in data set [1] (setting [4]) was found to be 148.8 °C; in data set [1] (setting [7]) it was 148.83 °C.

Turning to `COc1ccc2c3c([nH]c2c1)CCN(C)CC3.O=C(O)/C=C/C(=O)O` [Sample 11-C], in data set [2], the “XRPD (oven dried)” value is recorded as “Pattern #6a” and the “Observations (t = 0 @ T = 20° C.)” value is on record as “suspension”.

Take `COc1ccc2c3c([nH]c2c1)CCN(C)CC3.O=C(O)/C=C/C(=O)O` [Sample 11-Q]: in data set [2], the “XRPD (oven dried)” value is “Pattern #5” and the “Observations (t = 0 @ T = 20° C.)” value was “solution”.

Regarding `COc1ccc2c3c([nH]c2c1)CCN(C)CC3.O=C(O)/C=C/C(=O)O` [Sample 11-M], in data set [2], the “XRPD (oven dried)” value is recorded as “Pattern #6b” and the “Observations (t = 0 @ T = 20° C.)” value is given as “suspension”.

`COc1ccc2c3c([nH]c2c1)CCN(C)CC3` [Tabernanthalog (native), 8-Methoxy-3-methyl-2,4,5,6-tetrahydro-1H-azepino[4,5-b]indole]: the Solid on cooling result in data set [3] (2-Methyl THF, 5 vol) is given as “Yes”; in data set [3] (2-Propanol, 5 vol) it was “Yes”; in data set [3] (Acetone, 5 vol), “Yes”; in data set [3] (Acetonitrile, 10 vol), “Yes”; in data set [3] (Chlorobenzene, 5 vol) it was “Yes”; in data set [3] (Dichloromethane, 5 vol), “Yes”. Besides, the Solid on cooling entry in data set [3] (Ethanol, 5 vol) is reported as “Yes”; in data set [3] (Ethyl acetate, 10 vol) it was “Yes”; in data set [3] (Ethyl formate, 10 vol) it was “Yes”; in data set [3] (Isopropyl acetate, 15 vol) it was “Yes”; in data set [3] (Methanol, 5 vol) it was “Yes”; in data set [3] (Methyl acetate, 10 vol) it was “Yes”. The Solid on cooling result in data set [3] (Methylethyl ketone, 5 vol) is “Yes”; in data set [3] (Nitromethane, 5 vol), “Yes”; in data set [3] (Tetrahydrofuran, 5 vol), “Yes”; in data set [3] (Toluene, 15 vol), “Yes”. The “Solution at reflux” value in data set [3] (2-Methyl THF, 5 vol) is reported as “✓”; in data set [3] (2-Propanol, 5 vol), “✓”; in data set [3] (Acetone, 5 vol), “✓”; in data set [3] (Acetonitrile, 10 vol) it was “✓”; in data set [3] (Chlorobenzene, 5 vol), “✓”; in data set [3] (Dichloromethane, 5 vol), “✓”. Also, the “Solution at reflux” value is listed as “✓” in data set [3] (Ethanol, 5 vol); “✓” in data set [3] (Ethyl acetate, 10 vol); “✓” in data set [3] (Ethyl formate, 10 vol); “✓” in data set [3] (Isopropyl acetate, 15 vol); “✓” in data set [3] (Methanol, 5 vol); “✓” in data set [3] (Methyl acetate, 10 vol). The “Solution at reflux” value in data set [3] (Methylethyl ketone, 5 vol) was “✓”; in data set [3] (Nitromethane, 5 vol) it was “✓”; in data set [3] (Tetrahydrofuran, 5 vol), “✓”; in data set [3] (Toluene, 15 vol), “✓”. The “solubility in common solvents at 20° C.” value in data set [3] (19 common solvents) is “freely soluble in most common solvents investigated at 20° C., apart from tBME, heptane and water”. In addition, in data set [3] (19 common solvents, various volumes), the “solubility in common solvents at reflux” value is “soluble in 16 solvents at reflux”.

For `COc1ccc2c3c([nH]c2c1)CCN(C)CC3.O=C(O)/C=C/C(=O)O` [Sample 11-D], in data set [2], the “XRPD (oven dried)” value is listed as “Pattern #5” and the “Observations (t = 0 @ T = 20° C.)” value is recorded as “cloudy”.

As for `COc1ccc2c3c([nH]c2c1)CCN(C)CC3.O=C(O)/C=C/C(=O)O` [Sample 11-E], in data set [2], the “XRPD (oven dried)” value is reported as “Pattern #6b” and the “Observations (t = 0 @ T = 20° C.)” value is given as “suspension”.

The record behind these values is patent US20230257385A1, “SALT AND SOLID FORMS OF TABERNANTHALOG” (priority 2021, published 2023).
